Results on one compound are retold here after US20150031761A1, “USE OF 5-AMINOLEVULINIC ACID AND DERIVATIVES IN A SOLID FORM FOR PHOTODYNAMIC TREATMENT AND DIAGNOSIS” (Photocure ASA, priority 2007, published 2015).

The data set in a line: Stress-study at 80° C. of HAL HCl with excipients, impurities by HPLC. The format is physicochemical. Further details: key to level of impurity at relative retention time 0.8: **: An empty entry indicates no detectable levels. To be noted: 20 hours, relative to a pyrazine standard. How it is done: In order to get an indication of the stability of HAL in the presence of various excipients, a stress-study at 80° C. was performed. 100 mg HAL HCl+300 mg excipient (Poloxamer 188, Gelucire 44/14, Gelucire mixture (44/14:50/02=[…] w/w) and Miglyol 812 N) was mixed and the result after 20 hours was analysed by HPLC. The level of each impurity was calculated relative to a pyrazine standard.

As to `CCCCCCOC(=O)CCC(=O)CN.Cl` [HAL- HCl, Hexyl 5-aminolevulinate hydrochloride], the “level of impurity Pyrazine” value was determined as 1.77%, the “level of impurity at relative retention time 0.8” value is listed as “**”, the “level of impurity at relative retention time 0.88” value stood at 0.46% and the “level of impurity at relative retention time 1.37” value is 0.03%. The “level of impurity at relative retention time 1.91” value came out at 0.35% and the “level of impurity at relative retention time 2.06” value is on record as 0.16%.
